How the values were obtained:
[1] = biological target: T1, Solute carrier organic anion transporter family member 1B3 (Homo sapiens, UniProt Q9NPD5); conditions: chinese hamster, cho, 10 µM
T1 sequence (Q9NPD5 whole entry): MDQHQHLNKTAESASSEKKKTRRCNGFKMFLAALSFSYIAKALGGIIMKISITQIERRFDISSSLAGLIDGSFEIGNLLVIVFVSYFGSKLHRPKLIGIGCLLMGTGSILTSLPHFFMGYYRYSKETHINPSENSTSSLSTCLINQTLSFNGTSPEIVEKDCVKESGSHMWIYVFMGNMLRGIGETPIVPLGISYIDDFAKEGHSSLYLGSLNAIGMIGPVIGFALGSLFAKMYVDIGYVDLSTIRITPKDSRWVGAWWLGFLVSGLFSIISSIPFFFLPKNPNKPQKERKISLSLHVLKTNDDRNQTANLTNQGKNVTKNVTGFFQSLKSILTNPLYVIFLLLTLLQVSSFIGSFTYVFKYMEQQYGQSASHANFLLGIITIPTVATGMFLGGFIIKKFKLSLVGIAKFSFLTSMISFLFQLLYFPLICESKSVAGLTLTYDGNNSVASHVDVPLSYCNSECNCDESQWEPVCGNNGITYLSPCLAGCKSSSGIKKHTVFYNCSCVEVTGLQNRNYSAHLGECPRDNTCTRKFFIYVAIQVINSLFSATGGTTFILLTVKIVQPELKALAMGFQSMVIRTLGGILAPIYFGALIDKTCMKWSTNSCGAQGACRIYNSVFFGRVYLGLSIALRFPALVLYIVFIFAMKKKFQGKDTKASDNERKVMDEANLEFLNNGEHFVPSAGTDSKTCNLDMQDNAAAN

[2] = biological target: T2, Solute carrier organic anion transporter family member 1B1 (Homo sapiens, UniProt Q9Y6L6); conditions: chinese hamster, cho, 10 µM
T2 sequence (Q9Y6L6 whole entry): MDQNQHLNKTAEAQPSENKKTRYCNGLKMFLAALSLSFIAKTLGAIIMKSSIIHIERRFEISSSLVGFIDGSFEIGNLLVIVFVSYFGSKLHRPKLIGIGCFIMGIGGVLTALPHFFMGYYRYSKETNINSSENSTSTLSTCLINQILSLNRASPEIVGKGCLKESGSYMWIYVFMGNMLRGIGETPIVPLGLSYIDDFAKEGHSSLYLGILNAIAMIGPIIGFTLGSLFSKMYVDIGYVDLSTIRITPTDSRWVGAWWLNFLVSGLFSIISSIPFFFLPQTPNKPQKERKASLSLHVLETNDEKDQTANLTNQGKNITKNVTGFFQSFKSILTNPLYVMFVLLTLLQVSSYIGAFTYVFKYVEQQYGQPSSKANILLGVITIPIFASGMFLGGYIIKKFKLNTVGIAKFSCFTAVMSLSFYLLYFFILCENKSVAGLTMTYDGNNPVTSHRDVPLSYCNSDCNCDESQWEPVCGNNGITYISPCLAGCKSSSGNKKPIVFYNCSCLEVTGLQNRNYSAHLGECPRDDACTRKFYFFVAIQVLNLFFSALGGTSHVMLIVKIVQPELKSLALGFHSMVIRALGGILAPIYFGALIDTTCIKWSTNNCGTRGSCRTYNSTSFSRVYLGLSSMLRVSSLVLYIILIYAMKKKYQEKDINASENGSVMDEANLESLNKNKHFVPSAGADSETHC

Row | Compound | residual activity [1] | residual activity [2]
1 | Cc1cc(=O)c2c(O)c3c(cc2o1)OCC(C)CC3 (stereo unspecified) [DIHYDROPTAEROXYLIN] | 85.01% | 94.2%
2 | N#Cc1ccc2c(c1)N(CCCN1CCC(O)CC1)c1ccccc1S2 [PERICIAZINE] | 117.1% | 132.5%
3 | O=C(O)c1nn(Cc2ccc(Cl)cc2Cl)c2ccccc12 [LONIDAMINE] | 108% | 129%
4 | C[C@]12CC[C@@H](O)C[C@H]1CC[C@@H]1[C@@H]2C(=O)C[C@@]2(C)[C@H]1CC[C@]2(O)C(=O)CO [TETRAHYDROCORTISONE] | 99.93% | 101.6%
5 | N[C@@H](Cc1ccc(O)c(O)c1)C(=O)O [LEVODOPA] | 90.65% | 86.05%
6 | CC(=O)c1ccc(O)c(CC=C(C)C)c1 [3-PRENYL-4-HYDROXYACETOPHENONE] | 99.32% | 93.69%
7 | Cc1ccc(Cl)c(Nc2ccccc2C(=O)[O-])c1Cl.O.[Na+] [MECLOFENAMATE SODIUM] | 87.03% | 77.28%
8 | COc1cc2c(cc1OC)C(=O)OC2 [METAMECONINE] | 95.41% | 92.42%
9 | CC1=CC(=O)CC(C)(C)C1(O)/C=C/C(C)=C\C(=O)O (racemic) [ABSCISIC ACID] | 92.91% | 70.85%
10 | CC(=O)O[C@H]1CC[C@]2(C)[C@H]3CC[C@@H]4[C@@H]5CC(C)(C)CC[C@]5(C(=O)O)CC[C@@]4(C)[C@]3(C)CC[C@H]2C1(C)C | 103.7% | 112.3%
11 | CC1Cc2ccccc2N1NC(=O)c1ccc(Cl)c(S(N)(=O)=O)c1 (stereo unspecified) [INDAPAMIDE] | 97.5% | 80.06%
12 | CC(=O)O[C@@H]1CC(=O)[C@]2(C)[C@H]3CC[C@@]4(C)[C@H](c5ccoc5)OC(=O)[C@H]5O[C@]54[C@]3(C)C(=O)C[C@H]2C1(C)C | 97.89% | 80.54%
13 | COc1c(N2C[C@@H]3CCCN[C@@H]3C2)c(F)cc2c(=O)c(C(=O)O)cn(C3CC3)c12.Cl [MOXIFLOXACIN HYDROCHLORIDE] | 94.01% | 106%
14 | COc1ccc(-c2coc3cc(O)ccc3c2=O)cc1 [FORMONONETIN] | 114.7% | 169.8%
15 | COC(=O)Nc1nc2ccc([S+]([O-])c3ccccc3)cc2[nH]1 (stereo unspecified) [OXFENDAZOLE] | 114.2% | 95.15%
16 | CCn1cc(C(=O)O)c(=O)c2cnc(N3CCNCC3)nc21 [PIPEMIDIC ACID] | 131.1% | 111.8%
17 | Cl.O=C(O)C1=CCNCC1 [ISOGUVACINE HYDROCHLORIDE] | 103.5% | 113.5%
18 | COc1c2ccoc2nc2c(OC)c(OCC(O)C(C)(C)O)ccc12 (stereo unspecified) [EVOXINE] | 94.63% | 94%
19 | CC(C)(O)[C@@H]1[C@H]2OC(=O)[C@@H]1[C@]1(O)C[C@H]3O[C@]34C(=O)O[C@H]2[C@]14C [PICROTIN] | 89.14% | 88.44%
20 | COc1ccc2c(c1)OC[C@@H](Cc1ccc(OC)c(OC)c1)[C@H]2O [TETRAHYDROSAPPANONE A TRIMETHYL ETHER] | 134.3% | 93.05%
21 | Cc1cccc(CN2CCN(C(c3ccccc3)c3ccc(Cl)cc3)CC2)c1.Cl.O (stereo unspecified) | 79.23% | 80.22%
22 | CCOC(=O)c1c(C)cc(O)cc1O [ORSELLINIC ACID, ETHYL ESTER] | 105.8% | 116.8%
23 | CC1=CCc2c(cc3oc(C)cc(=O)c3c2O)OC1 [PTAEROXYLIN] | 109.4% | 104.1%
24 | COc1ccc2c(c1)OC1(O)COc3cc(OC)c(OC)cc3C1=C2 (stereo unspecified) [12a-HYDROXY-5-DEOXYDEHYDROMUNDUSERONE] | 119.6% | 102.5%

Row | Compound | residual activity [1] | residual activity [2]
25 | C[C@@H]1CC[C@@]2(OC1)O[C@H]1C[C@H]3[C@@H]4CC[C@@]5(C)C[C@@H](O)CC[C@]5(C)[C@H]4CC(=O)[C@]3(C)[C@H]1[C@@H]2C [HECOGENIN] | 105.1% | 41.82%
26 | NC(C(=O)O)C(O)C(=O)O (racemic) [d,l-threo-3-HYDROXYASPARTIC ACID] | 82.91% | 70.17%
27 | Cl.NCC(=O)CCC(=O)O [AMINOLEVULINIC ACID HYDROCHLORIDE] | 89.23% | 84.34%
28 | COc1ccc(Cc2nccc3cc(OC)c(OC)cc23)cc1OC.Cl [PAPAVERINE HYDROCHLORIDE] | 113.7% | 266.9%
29 | CC(=O)Oc1cccc(O)c1 [RESORCINOL MONOACETATE] | 68.79% | 102.7%
30 | CCCCCCOc1ccccc1C(N)=O [EXALAMIDE] | 129.1% | 188.8%
31 | N[C@H](CO)Cc1ccccc1 [L-PHENYLALANINOL] | 101.5% | 77.2%
32 | COc1c2c(cc3c1OCO3)CCN(C)C2 [HYDROCOTARNINE] | 98.91% | 77.76%
33 | CC1(C)C[C@@H]2[C@H]1CC[C@]1(C)C[C@@]2(O)CC[C@H]1O | 87.7% | 81.35%
34 | COc1c(C)c2c(c(O)c1C/C=C(\C)CCC(=O)O)C(=O)OC2 [MYCOPHENOLIC ACID] | 100.1% | 106.8%
35 | CCCCC(=O)O[C@]1(C(=O)CO)[C@@H](C)C[C@H]2[C@@H]3CCC4=CC(=O)C=C[C@]4(C)[C@@]3(F)[C@@H](O)C[C@@]21C [BETAMETHASONE VALERATE] | 10.24% | 38.6%
36 | CC(C)[C@]12O[C@H]1[C@@H]1O[C@@]13[C@@]1(C)CCC4=C(COC4=O)[C@@H]1C[C@@H]1O[C@@]13C2=O [TRIPTONIDE] | 84.23% | 74.69%
37 | C[n+]1cccc(C(=O)[O-])c1 [TRIGONELLINE] | 98.34% | 111.6%
38 | CC(=O)c1c(O)cc(O)cc1O [2,4,6-TRIHYDROXYACETOPHENONE] | 92.98% | 72.12%
39 | c1cc2c(cc1[C@H]1OC[C@H]3[C@@H]1CO[C@H]3c1ccc3c(c1)OCO3)OCO2 [ASARININ] | 116.8% | 107.7%
40 | CCOC(=O)[C@H](CCc1ccccc1)N[C@@H](C)C(=O)N1Cc2ccccc2C[C@H]1C(=O)O.Cl [QUINAPRIL HYDROCHLORIDE] | 98.34% | 109.5%
41 | CCN(CC)C(=S)SSC(=S)N(CC)CC | 64.06% | 71.59%
42 | O=c1oc2cc(O)ccc2s1 [TIOXOLONE] | 76.34% | 67.3%
43 | Cc1scc2c1N(C(=O)CN1CCN(C)CC1)c1ccccc1NC2=O.Cl [TELENZEPINE HYDROCHLORIDE] | 93.24% | 99.27%
44 | C=C[C@H]1CN2CC[C@H]1C[C@H]2[C@H](OC(=O)OCC)c1ccnc2ccc(OC)cc12 [QUININE ETHYLCARBONATE] | 64.19% | 58.74%
45 | O=C1c2ccccc2C(=O)c2c1ccc(O)c2O [ATHRAQUINONES A] | 93.11% | 84.81%
46 | CC(=O)O[C@H]1CC[C@]2(C)C3=C(CC[C@H]2C1(C)C)[C@@]1(C)CC[C@H]([C@H](C)CCC=C(C)C)[C@]1(C)CC3 | 40.21% | 29.18%
47 | CC(C)CCC[C@@H](C)[C@H]1CC[C@H]2C3=CC[C@H]4C[C@@H](O)CC[C@]4(C)[C@H]3CC[C@]12C | 99.24% | 85.16%
48 | Cl.NNCc1ccccc1 [BENZYLHYDRAZINE HYDROCHLORIDE] | 108.9% | 122.4%

Source: ChEMBL document CHEMBL3039007, “Structure-based identification of OATP1B1/3 inhibitors” (Mol Pharmacol, 2013)
